Laboratory results from patent US20240352029A1, “CDK Inhibitors And Their Use As Pharmaceuticals” (Prelude Therapeutics Incorporated, priority 2023, published 2024).

Tests used:
OVCAR3 p-RB = test: pRB ICW assay in OVCAR3 cells; format: cell-based; conditions: Homo sapiens, OVCAR-3, 2 hours incubation with compound
Description: pRB ICW Assay in OVCAR3 Cells
OVCAR3 cells were maintained in RPMI (Corning, Catalog #: 10-040-CV) supplemented with 10% v/v FBS (Gibco, Catalog #: 26140-079), 1% v/v Penicillin Streptomycin (Gibco, Catalog #15140-122.) OVCAR3 cells grown at log phase were trypsinized, counted, and resuspended in fresh medium to reach a final density of 6.7e4 cells/ml and 75 μL of culture were dispensed into a 384-well plate (Falcon, cat #353962) using Multidrop Combi dispenser (Thermo Scientific). The next day, compounds were dispensed as a 9-point, ½ log serial dilution using a Tecan digital dispenser (D300e), and cells were incubated with compound for 2 hours in a humidified incubator at 37° C. A reference compound at a final concentration of 10 μM was used as a control for maximum inhibition. Each compound was tested in duplicates in each experiment. At the end of the incubation, 25 μl of 16% paraformaldehyde (Electron Microscopy, cat #15710) was slowly added to each well and the plate was incubated at room temperature (RT) for 30 minutes to fix cells. Cells were then permeabilized by incubating with 50 μl/well of wash buffer (1×PBS with 0.1% Triton X-100) 5×5 minutes, followed by 1 hour blocking with 30 μl/well of Odyssey blocking buffer (Li—COR, cat #927-40000), all at RT. Anti-phosphor RB antibody (Cell signaling 8516S) was diluted 1:1000 in Odyssey blocking buffer and 20 μl was added to all wells and incubated overnight in 4° C. with gently rocking. The next day, cells were washed 5×5 min with 50 μl/well of wash buffer, followed with 1 hour incubation with secondary antibody and DRAQ5 diluted in Odyssey blocking buffer (1:500 dilution for secondary antibody and 1:2000 dilution for DRAQ5), 5×5 min washes, and one last wash with water. Plates were dried in 37° C. oven for 5 min and scanned using Li—COR Odyssey CLx imaging system to acquire intensities at 700 and 800 nm channels.

CDK2/Cyclin E2 = CDK2/Cyclin E2 (Homo sapiens, UniProt P24941); test: CDK2/CyclinE2 enzymatic activity assay (TR-FRET); format: biochemical; conditions: ATP 1 mM final, read-out: CDK2_E1 IC50
Description: CDK2/CyclinE2 Enzymatic Activity Assay
(§1) The inhibitory activity of compounds was evaluated in vitro using TR-FRET assay with white 384-well low volume microplate (Greiner Bio-One). CDK2/Cyclin E2 catalyzed phosphorylation of peptide in the presence and absence of compounds was measured and used in IC50 determination. Recombinant protein complex CDK2/Cyclin E2, expressed from insect cell, was purchased from ProQinase. Testing compounds were dissolved in DMSO at 1 mM and tested in 9-dose IC50 mode. The reaction mixture was prepared by mixing CDK2/CyclinE2 (1 nM final), ULight-4E-BP1 (50 nM final, Perkinelmer, TRF0128-D), and ATP (1 mM final) in assay buffer (20 mM of HEPES pH 7.4, 1 mM of EGTA, 0.05% BSA, 0.005% Tween 20, and 1 mM TCEP). The compound of interest in DMSO was added to each well in 3-fold serial dilution by dispenser (TECAN D300E) to make a 9.9 μL of reaction mixture. After 20 minutes preincubation at room temperature, 0.1 μL MgCl2 (10 mM final) was added to initiate the reaction. Following a 45 minutes incubation at 37° C., the reaction was stopped by addition of 2 μL of quenching buffer consisting of Lance detection buffer (Perkinelmer CR97-100C), LANCE Ultra Europium-anti-P-4E-BP1 (Perkinelmer, TRF0216-D), EDTA, and incubate at room temperature for additional 60 minutes in dark. The reaction signal was measured by Envision multimode plate reader (PerkinElmer, 2102-0010). IC50 values were determined by fitting the data to the standard 4 parameters with Hill Slope using GraphPad Prism software.

CDK4/Cyclin D1 = target: T1, CDK4/Cyclin D1 (Homo sapiens, UniProt P11802); test: CDK4/CyclinD1 enzymatic activity assay (TR-FRET); format: biochemical; conditions: ATP 2 mM final, read-out: CDK4_D1 IC50
T1 construct: purchased ProQinase; host or cells: insect cell
T1 sequence (P11802 whole entry): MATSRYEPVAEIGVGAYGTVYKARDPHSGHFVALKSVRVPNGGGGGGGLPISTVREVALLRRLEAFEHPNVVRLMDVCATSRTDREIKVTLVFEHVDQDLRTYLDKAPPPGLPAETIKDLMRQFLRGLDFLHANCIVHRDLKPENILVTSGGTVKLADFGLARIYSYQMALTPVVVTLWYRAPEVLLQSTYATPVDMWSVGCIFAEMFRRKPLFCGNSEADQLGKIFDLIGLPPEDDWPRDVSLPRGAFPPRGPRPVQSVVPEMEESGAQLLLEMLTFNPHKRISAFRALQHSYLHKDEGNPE
T1 sequence (P24385 whole entry partner): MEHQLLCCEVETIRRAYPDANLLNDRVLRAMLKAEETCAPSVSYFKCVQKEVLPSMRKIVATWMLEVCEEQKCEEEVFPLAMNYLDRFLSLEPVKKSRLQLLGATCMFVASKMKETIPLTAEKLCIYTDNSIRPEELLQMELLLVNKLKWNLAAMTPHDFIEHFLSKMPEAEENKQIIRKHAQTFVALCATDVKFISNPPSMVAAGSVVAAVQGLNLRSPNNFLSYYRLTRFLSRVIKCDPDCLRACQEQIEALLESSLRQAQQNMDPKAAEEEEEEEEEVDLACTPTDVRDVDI
Description: CDK4/CyclinD1 Enzymatic Activity Assay
as §1, with “Bio-One). CDK4/Cyclin D1” for “Bio-One). CDK2/Cyclin E2”, “complex CDK4/Cyclin D1,” for “complex CDK2/Cyclin E2,”, “mixing CDK4/CyclinD1” for “mixing CDK2/CyclinE2”, “ULight-4E-BP1 (100” for “ULight-4E-BP1 (50”, “ATP (2” for “ATP (1”

SMILES | IC50 (OVCAR3 p-RB) [nM] | IC50 (CDK2/Cyclin E2) [nM] | IC50 (CDK4/Cyclin D1) [nM]
Cn1cc(S(=O)(=O)N2CCC(Nc3ncc(C(F)(F)F)c(-c4cc5c(s4)C(=O)NC5)n3)CC2)cn1 [Example 23, 2-(2-((1-((1-Methyl-1H-pyrazol-4-yl)sulfonyl)piperidin-4-yl)amino)-5-(trifluoromethyl)pyrimidin-4-yl)-4,5-dihydro-6H-thieno[2,3-c]pyrrol-6-one] | 100 to 500 | ≤ 100 | 100 to 500
C[C@@H]1CN(S(C)(=O)=O)CC[C@@H]1Nc1ncc(C(F)(F)F)c(-c2cc3c(s2)C(C)(C)NC3=O)n1 [Example 6, 6,6-Dimethyl-2-(2-(((3R,4S)-3-methyl-1-(methylsulfonyl)piperidin-4-yl)amino)-5-(trifluoromethyl)pyrimidin-4-yl)-5,6-dihydro-4H-thieno[2,3-c]pyrrol-4-one] | ≤ 100 | ≤ 100 | ≤ 100
CS(=O)(=O)N1CCC(Nc2ncc(C(F)(F)F)c(-c3cc4c(s3)CNC4=O)n2)CC1 [Example 17, 2-(2-((1-(methylsulfonyl)piperidin-4-yl)amino)-5-(trifluoromethyl)pyrimidin-4-yl)-5,6-dihydro-4H-thieno[2,3-c]pyrrol-4-one] | ≤ 100 | ≤ 100 | ≤ 100
C[C@@H]1CN(S(=O)(=O)c2cn[nH]c2)CC[C@@H]1Nc1ncc(C(F)(F)F)c(-c2cc3c(s2)C(C)(C)NC3=O)n1 [Example 9, 2-(2-(((3R,4S)-1-((1H-pyrazol-4-yl)sulfonyl)-3-methylpiperidin-4-yl)amino)-5-(trifluoro-methyl)pyrimidin-4-yl)-6,6-dimethyl-5,6-dihydro-4H-thieno[2,3-c]pyrrol-4-one] | ≤ 100 | ≤ 100 | ≤ 100
Cc1c(-c2nc(N[C@H]3CCN(S(C)(=O)=O)C[C@H]3C)ncc2F)sc2c1C(=O)NC2(C)C [Example 1, 2-(5-Fluoro-2-(((3R,4S)-3-methyl-1-(methylsulfonyl)piperidin-4-yl)amino)pyrimidin-4-yl)-3,6,6-trimethyl-5,6-dihydro-4H-thieno[2,3-c]pyrrol-4-one] | ≤ 100 | ≤ 100 | ≤ 100

Other lines, results leading:

IC50 (OVCAR3 p-RB) [nM] | IC50 (CDK2/Cyclin E2) [nM] | IC50 (CDK4/Cyclin D1) [nM] | SMILES
≤ 100 | ≤ 100 | ≤ 100 | Cc1c(-c2nc(N[C@H]3CCN(S(C)(=O)=O)C[C@H]3F)ncc2F)sc2c1C(=O)NC2(C)C [Example 2, 2-(5-fluoro-2-(((3R,4S)-3-fluoro-1-(methylsulfonyl)piperidin-4-yl)amino)pyrimidin-4-yl)-3,6,6-trimethyl-5,6-dihydro-4H-thieno[2,3-c]pyrrol-4-one]
≤ 100 | ≤ 100 | ≤ 100 | C[C@@H]1CN(S(=O)(=O)c2cn(C)cn2)CC[C@@H]1Nc1ncc(C(F)(F)F)c(-c2cc3c(s2)C(C)(C)NC3=O)n1 [Example 8, 6,6-dimethyl-2-(2-(((3R,4S)-3-methyl-1-((1-methyl-1H-imidazol-4-yl)sulfonyl)piperidin-4-yl)amino)-5-(trifluoromethyl)pyrimidin-4-yl)-5,6-dihydro-4H-thieno[2,3-c]pyrrol-4-one]
≤ 100 | ≤ 100 | ≤ 100 | Cn1cc(S(=O)(=O)N2CCC(Nc3ncc(C(F)(F)F)c(-c4cc5c(s4)CNC5=O)n3)CC2)cn1 [Example 20, 2-(2-((1-((1-methyl-1H-pyrazol-4-yl)sulfonyl)piperidin-4-yl)amino)-5-(trifluoromethyl)pyrimidin-4-yl)-5,6-dihydro-4H-thieno[2,3-c]pyrrol-4-one]
≤ 100 | ≤ 100 | ≤ 100 | Cc1c(-c2nc(NC3CCN(S(C)(=O)=O)CC3)ncc2F)sc2c1C(=O)NC2(C)C [Example 3, 2-(5-fluoro-2-((1-(methylsulfonyl)piperidin-4-yl)amino)pyrimidin-4-yl)-3,6,6-trimethyl-5,6-dihydro-4H-thieno[2,3-c]pyrrol-4-one]
